Patent US20240150356A1, “Pyrimidine amide compounds and use thereof” (ALPHALA CO., LTD., priority 2019, published 2024)

test system: Hep3B cells (hepatocellular carcinoma cell line); assay: In vitro MTS cell viability assay (NCI-60 methodology), Hep3B; format: cell-based; details: Homo sapiens, 48 h, Table 1, MTS, 2 days drug incubation, 50% reduction vs time zero, read-out: Hep3B LC50
Procedure, shortened: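 Following NCI-60 method, MTS viability of Hep3B measured 24 h after plating (time zero) and after a further 2-day exposure to five concentrations (2-fold series). LC50 defined where [(Ti−Tz)/Tz]×100 = −50.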

Compound | LC50 [nM]
CC(C)n1ncc2c(NC(=O)c3ccc([N+](=O)[O-])s3)nc(-c3ccc(C(C)(C)C)cc3)nc21 [Compound 1-23, N-(6-(4-(tert-butyl)phenyl)-1-isopropyl-1H-pyrazolo[3,4-d]pyrimidin-4-yl)-5-nitrothiophene-2-carboxamide] | 1570
O=C(Nc1nc(-c2ccc(OC(F)(F)F)cc2)nc2c1cnn2CCN1CCOCC1)c1ccc([N+](=O)[O-])s1 [Compound 1-30, N-(1-(2-morpholinoethyl)-6-(4-(trifluoromethoxy)phenyl)-1H-pyrazolo[3,4-d]pyrimidin-4-yl)-5-nitrothiophene-2-carboxamide] | 1700
Cn1ncc2c(NC(=O)c3ccc([N+](=O)[O-])s3)nc(-c3ccc(C(C)(C)C)cc3)nc21 [Compound 1-1, N-(6-(4-(tert-butyl)phenyl)-1-methyl-1H-pyrazolo[3,4-d]pyrimidin-4-yl)-5-nitrothiophene-2-carboxamide] | 1800

same assay, conditions: Homo sapiens, 48 h, Table 2, MTS, 2 days drug incubation, 50% reduction vs time zero, read-out: Hep3B LC50

Compound | LC50 [nM]
CC(C)n1ncc2c(-c3ccc(OC(F)(F)F)cc3)nc(NC(=O)c3ccc([N+](=O)[O-])s3)nc21 [Compound 2-3, N-(1-isopropyl-4-(4-(trifluoromethoxy)phenyl)-1H-pyrazolo[3,4-d]pyrimidin-6-yl)-5-nitrothiophene-2-carboxamide] | 4020

same assay, conditions: Homo sapiens, 48 h, Table 3, MTS, 2 days drug incubation, 50% reduction vs time zero, read-out: Hep3B LC50

Compound | LC50 [nM]
Cn1cc2nc(-c3ccc(C(C)(C)C)cc3)nc(NC(=O)c3ccc([N+](=O)[O-])s3)c2c1 [Compound 3-10, N-(2-(4-(tert-butyl)phenyl)4-methyl-6H-pyrrolo[3,4,d]pyrimidin-4-yl)-5-nitrothiophene-2-carboxamide] | 10000
Cc1nn(C)c2c(NC(=O)c3ccc([N+](=O)[O-])s3)nc(-c3cccc(OC(F)(F)F)c3)nc12 [Compound 3-4, N-(1,3-dimethyl-5-(3-(trifluoromethoxy)phenyl)-1H-pyrazolo[4,3-d]pyrimidin-7-yl)-5-nitrothiophene-2-carboxamide] | 1510

same assay, conditions: Homo sapiens, 48 h, Table 4, MTS, 2 days drug incubation, 50% reduction vs time zero, read-out: Hep3B LC50

Compound | LC50 [nM]
CC(C)(C)c1ccc(-c2csc3c(NC(=O)c4ccc([N+](=O)[O-])s4)nc(-c4ccc(F)cc4)nc23)cc1 [Compound 4-19, N-(7-(4-(tert-butyl)phenyl)-2-(4-fluorophenyl)thieno[3,2-d]pyrimidin-4-yl)-5-nitrothiophene-2-carboxamide] | 670

same assay, conditions: Homo sapiens, 48 h, Table 5, MTS, 2 days drug incubation, 50% reduction vs time zero, read-out: Hep3B LC50

Compound | LC50 [nM]
O=C(Nc1nc(-c2ccc(C(F)(F)F)c(F)c2)nc2c1cnn2-c1ccccc1)c1ccc([N+](=O)[O-])s1 [Compound 5-52, N-(6-(3-fluoro-4-(trifluoromethyl)phenyl)-1-phenyl-1H-pyrazolo[3,4-d]pyrimidin-4-yl)-5-nitrothiophene-2-carboxamide] | > 1250
O=C(Nc1nc(-n2ccc(C(F)(F)F)n2)nc2c1cnn2-c1ccccc1)c1ccc([N+](=O)[O-])s1 [Compound 5-22, 5-nitro-N-(1-phenyl-6-(3-(trifluoromethyl)-1H-pyrazol-1-yl)-1H-pyrazolo[3,4-d]pyrimidin-4-yl)thiophene-2-carboxamide] | 380
CN(C)c1cccc(-c2nc(NC(=O)c3ccc([N+](=O)[O-])s3)c3cnn(-c4ccccc4)c3n2)c1 [Compound 5-41, N-(6-(3-(dimethylamino)phenyl)-1-phenyl-1H-pyrazolo[3,4-d]pyrimidin-4-yl)-5-nitrothiophene-2-carboxamide] | 450
O=C(Nc1nc(-c2ccc(C(F)(F)F)cc2F)nc2c1cnn2-c1ccccc1)c1ccc([N+](=O)[O-])s1 [Compound 5-51, N-(6-(2-fluoro-4-(trifluoromethyl)phenyl)-1-phenyl-1H-pyrazolo[3,4-d]pyrimidin-4-yl)-5-nitrothiophene-2-carboxamide] | 370
O=C(Nc1nc(-c2ccc(F)cc2)nc2c1cnn2-c1ccccc1)c1ccc([N+](=O)[O-])s1 [Compound 5-27] | 270

same assay, conditions: Homo sapiens, 48 h, Table 6, MTS, 2 days drug incubation, 50% reduction vs time zero, read-out: Hep3B LC50

Compound | LC50 [nM]
CC1CCC(c2nc(NC(=O)c3ccc([N+](=O)[O-])s3)c3cnn(-c4ccc(F)cc4)c3n2)CC1 (stereo not drawn) [Compound 6-143, N-(1-(4-fluorophenyl)-6-(4-methylcyclohexyl)-1H-pyrazolo[3,4-d]pyrimidin-4-yl)-5-nitrothiophene-2-carboxamide] | 1020
Cc1ccn(-c2nc(NC(=O)c3ccc([N+](=O)[O-])s3)c3cnn(-c4ccc(C(C)(C)C)cc4)c3n2)n1 [Compound 6-77, N-(1-(4-(tert-butyl)phenyl)-6-(3-methyl-1H-pyrazol-1-yl)-1H-pyrazolo[3,4-d]pyrimidin-4-yl)-5-nitrothiophene-2-carboxamide] | 250
CCOCCOCCOc1ccc(-c2nc(NC(=O)c3ccc([N+](=O)[O-])s3)c3cnn(-c4ccc(C(F)(F)F)cc4)c3n2)cn1 [Compound 6-56, N-(6(6-(2-(2-ethoxyethoxy)ethoxy)pyridin-3-yl)-1-(4-(trifluoromethyl)phenyl)-1H-pyrazolo[3,4-d]pyrimidin-4-yl)-5-nitrothiophene-2-carboxamide] | 200
COc1ccc(-n2ncc3c(NC(=O)c4ccc([N+](=O)[O-])s4)nc(-c4ccc(Cl)nc4)nc32)cc1 [Compound 6-21, N-(6-(6-chloropyridin-3-yl)-1-(4-methoxyphenyl)-1H-pyrazolo[3,4,d]pyrimidin-4-yl)-5-nitrothiophene-2-carboxamide] | 120
Cc1ccccc1-n1ncc2c(NC(=O)c3ccc([N+](=O)[O-])s3)nc(N3CCC[C@H]3CO)nc21 [Compound 6-1, (S)—N-(6-(2-(hydroxymethyl)pyrrolidin-1-yl)-1-(o-tolyl)-1H-pyrazolo[3,4-d]pyrimidin-4-yl)-5-nitrothiophene-2-carboxamide] | > 3000
COc1ccc(-n2ncc3c(NC(=O)c4ccc([N+](=O)[O-])s4)nc(C4CCC(C)(C)CC4)nc32)cc1 [Compound 6-30, N-(6-(4,4-dimethylcyclohexyl)-1-(4-methoxyphenyl)-1H-pyrazolo[3,4-d]pyrimidin-4-yl)-5-nitrothiophene-2-carboxamide] | 1320
CCOc1cc(Cl)ccc1-c1nc(NC(=O)c2ccc([N+](=O)[O-])s2)c2cnn(-c3ccc(F)cc3)c2n1 [Compound 6-129, N-(6-(4-chloro-2-ethoxyphenyl)-1-(4-fluorophenyl)-1H-pyrazolo[3,4-d]pyrimidin-4-yl)-5-nitrothiophene-2-carboxamide] | > 3000
COc1ccc(-n2ncc3c(NC(=O)c4ccc([N+](=O)[O-])s4)nc(-c4ccc(Cl)cc4)nc32)cc1 [Compound 6-20, N-(6-(4-chlorophenyl)-1-(4-methoxyphenyl)-1H-pyrazolo[3,4-d]pyrimidin-4-yl)-5-nitrothiophene-2-carboxamide] | 320

same assay, conditions: Homo sapiens, 48 h, Table 7, MTS, 2 days drug incubation, 50% reduction vs time zero, read-out: Hep3B LC50

Compound | LC50 [nM]
O=C(Nc1nc(-c2ccc(F)cc2F)nc2c1cnn2-c1ccc(C(F)(F)F)cn1)c1ccc([N+](=O)[O-])s1 [Compound 7-6] | 150
O=C(Nc1nc(-c2ccc(F)cc2)nc2c1cnn2-c1ccccn1)c1ccc([N+](=O)[O-])s1 [Compound 7-8, N-(6-(4-fluorophenyl)-1-(pyridin-2-yl)-1H-pyrazolo[3,4-d]pyrimidin-4-yl)-5-nitrothiophene-2-carboxamide] | 580
O=C(Nc1nc(-c2ccc(OC(F)(F)F)cc2)nc2c1cnn2-c1ccc(C(F)(F)F)cn1)c1ccc([N+](=O)[O-])s1 [Compound 7-5, 5-nitro-N-(6-(4-(trifluoromethoxy)phenyl)-1-(5-(trifluoromethyl)pyridin-2-yl)-1H-pyrazolo[3,4-d]pyrimidin-4-yl)thiophene-2-carboxamide] | 310

same assay, conditions: Homo sapiens, 48 h, Table 9, MTS, 2 days drug incubation, 50% reduction vs time zero, read-out: Hep3B LC50

Compound | LC50 [nM]
CCOCCOC(=O)N1CCC(n2ncc3c(NC(=O)c4ccc([N+](=O)[O-])s4)nc(-c4ccc(Cl)cc4)nc32)CC1 [Compound 9-13, 2-ethoxyethyl 4-(6-(4-chlorophenyl)-4-(5-nitrothiophene-2-carboxamido)-1H-pyrazolo [3,4-d]pyrimidin-1-yl)piperidine-1-carboxylate] | 1620
CC(C)(C)OC(=O)N1CCC(n2ncc3c(NC(=O)c4ccc([N+](=O)[O-])s4)nc(-c4ccc(F)nc4)nc32)CC1 [Compound 9-4, tert-butyl 4-(6-(6-fluoropyridin-3-yl)-4-(5-nitrothiophene-2-carboxamido)-1H-pyrazolo[3,4-d]pyrimidin-1-yl)piperidine-1-carboxylate] | 930

same assay, conditions: Homo sapiens, 48 h, Table 10, MTS, 2 days drug incubation, 50% reduction vs time zero, read-out: Hep3B LC50

Compound | LC50 [nM]
CN(C)Cc1ccc(-c2nc(NC(=O)c3ccc([N+](=O)[O-])s3)c3cnn(C4CCCCC4)c3n2)cc1 [Compound 10-29, N-(1-cyclohexyl-6-(4-((dimethylamino)methyl)phenyl)-1H-pyrazolo[3,4-d]pyrimidin-4-yl)-5-nitrothiophene-2-carboxamide] | 1510
CCOc1ccc(-c2nc(NC(=O)c3ccc([N+](=O)[O-])s3)c3cnn(C4CCC(F)(F)CC4)c3n2)cc1 [Compound 10-59, N-(1-(4,4<fluorocyclohexyl)-4-(4-ethoxyphenyl)-1H-pyrazolo[3,4-d]pyrimidin-4-yl)-5-nitrothiophene-2-carboxamide] | 1280
O=C(Nc1nc(-c2cc(F)cc(F)c2)nc2c1cnn2C1CCCCC1)c1ccc([N+](=O)[O-])s1 [Compound 10-41] | 790
CCCOc1ccc(-c2nc(NC(=O)c3ccc([N+](=O)[O-])s3)c3cnn(C4CCC(F)(F)CC4)c3n2)cc1 [Compound 10-60, N-(1-(4,4-difluorocyclohexyl)-6-(4-propoxyphenyl)-1H-pyrazolo[3,4-d]pyrimidin-4-yl)-5-nitrothiophene-2-carboxamide] | 830
CS(=O)(=O)c1ccc(-c2nc(NC(=O)c3ccc([N+](=O)[O-])s3)c3cnn(C4CCCCC4)c3n2)cc1 [Compound 10-34, N-(1-cyclohexyl-6-(4-(methylsulfonyl)phenyl)-1H-pyrazolo[3,4-d]pyrimidin-4-yl)-5-nitrothiophene-2-carboxamide] | 930
